In ChEMBL document CHEMBL1201862, “PubChem BioAssay data set” (2004):
Activity calls are given as the source filed them.

Tests used:
[1] = A Cell Based Secondary Assay To Explore Cytotoxicity of Compounds that Sensitize Mycobacterium Tuberculosis to Beta-Lactam Antibiotics.; assay type: functional
Escherichia coli = experiment: microbe, parasite or virus in culture
Large T antigen = Large T antigen (Simian virus 40, UniProt P03070); assay type: functional, Betapolyomavirus macacae;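 also: Confirmatory-stage PubChem screen for compounds that inhibit SV40 T antigen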
Large T antigen, sequence (P03070 whole entry): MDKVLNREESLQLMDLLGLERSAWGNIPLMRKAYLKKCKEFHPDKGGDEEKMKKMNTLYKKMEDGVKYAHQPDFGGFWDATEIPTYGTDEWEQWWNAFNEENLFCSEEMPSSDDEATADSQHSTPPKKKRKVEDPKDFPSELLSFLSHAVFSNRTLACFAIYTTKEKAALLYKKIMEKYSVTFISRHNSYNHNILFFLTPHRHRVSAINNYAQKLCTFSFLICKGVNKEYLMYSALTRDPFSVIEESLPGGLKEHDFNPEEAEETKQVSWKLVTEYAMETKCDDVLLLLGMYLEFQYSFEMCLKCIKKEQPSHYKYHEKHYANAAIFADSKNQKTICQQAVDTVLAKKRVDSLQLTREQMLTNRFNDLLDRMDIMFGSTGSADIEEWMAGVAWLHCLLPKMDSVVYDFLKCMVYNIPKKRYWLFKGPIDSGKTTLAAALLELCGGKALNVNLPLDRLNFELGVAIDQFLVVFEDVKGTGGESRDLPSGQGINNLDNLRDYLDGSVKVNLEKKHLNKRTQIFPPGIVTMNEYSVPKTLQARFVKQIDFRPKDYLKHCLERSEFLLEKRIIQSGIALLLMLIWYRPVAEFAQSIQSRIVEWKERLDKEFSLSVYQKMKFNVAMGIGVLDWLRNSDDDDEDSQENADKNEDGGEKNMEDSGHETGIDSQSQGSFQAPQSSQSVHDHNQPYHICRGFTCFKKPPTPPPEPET

Estrogen receptor beta = Estrogen receptor beta (Homo sapiens, UniProt Q92731);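 also: recombinant ER-beta bound to coactivator SRC1 peptide in presence of estradiol agonist; inhibitors block coactivator peptide binding and lower the FRET signal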
Estrogen receptor beta, sequence (Q92731 whole entry): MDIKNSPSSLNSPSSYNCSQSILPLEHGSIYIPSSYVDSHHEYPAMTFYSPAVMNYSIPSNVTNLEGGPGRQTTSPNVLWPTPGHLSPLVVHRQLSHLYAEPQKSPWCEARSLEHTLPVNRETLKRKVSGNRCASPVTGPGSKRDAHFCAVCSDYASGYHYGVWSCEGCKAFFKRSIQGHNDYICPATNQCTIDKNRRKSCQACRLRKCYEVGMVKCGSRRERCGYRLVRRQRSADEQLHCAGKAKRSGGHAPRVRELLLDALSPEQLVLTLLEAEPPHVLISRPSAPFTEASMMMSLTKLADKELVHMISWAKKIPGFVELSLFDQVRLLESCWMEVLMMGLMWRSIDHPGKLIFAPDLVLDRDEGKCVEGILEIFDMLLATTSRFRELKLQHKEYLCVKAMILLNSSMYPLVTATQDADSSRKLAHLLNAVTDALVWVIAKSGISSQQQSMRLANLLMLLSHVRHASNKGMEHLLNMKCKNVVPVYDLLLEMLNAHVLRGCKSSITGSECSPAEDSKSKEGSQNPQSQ

Cytochrome P450 2C19 = Cytochrome P450 2C19 (Homo sapiens, UniProt P33261); experiment: Cytochrome panel assay with activity outcomes. Panel member name: p450-cyp2c19 Compounds with AC50 equal or less than 10 uM are considered active; assay type: functional; settings: read-out: AC50
Cytochrome P450 2C19, sequence (P33261 whole entry): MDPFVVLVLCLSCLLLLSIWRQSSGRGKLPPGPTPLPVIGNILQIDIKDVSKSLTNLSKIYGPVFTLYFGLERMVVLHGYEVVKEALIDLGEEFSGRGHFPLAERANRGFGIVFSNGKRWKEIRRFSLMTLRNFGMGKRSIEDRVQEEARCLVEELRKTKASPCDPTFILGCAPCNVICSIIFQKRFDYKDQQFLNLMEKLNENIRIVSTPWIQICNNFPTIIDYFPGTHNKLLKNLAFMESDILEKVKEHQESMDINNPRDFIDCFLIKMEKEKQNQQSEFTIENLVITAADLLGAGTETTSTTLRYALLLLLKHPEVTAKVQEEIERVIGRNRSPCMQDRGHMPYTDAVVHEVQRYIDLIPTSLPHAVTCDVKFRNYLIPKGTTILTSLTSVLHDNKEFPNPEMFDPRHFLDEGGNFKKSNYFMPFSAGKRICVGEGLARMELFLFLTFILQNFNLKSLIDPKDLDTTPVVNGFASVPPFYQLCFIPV

Cytochrome P450 2C9 = Cytochrome P450 2C9 (Homo sapiens, UniProt P11712)
Cytochrome P450 2C9, sequence (P11712 whole entry): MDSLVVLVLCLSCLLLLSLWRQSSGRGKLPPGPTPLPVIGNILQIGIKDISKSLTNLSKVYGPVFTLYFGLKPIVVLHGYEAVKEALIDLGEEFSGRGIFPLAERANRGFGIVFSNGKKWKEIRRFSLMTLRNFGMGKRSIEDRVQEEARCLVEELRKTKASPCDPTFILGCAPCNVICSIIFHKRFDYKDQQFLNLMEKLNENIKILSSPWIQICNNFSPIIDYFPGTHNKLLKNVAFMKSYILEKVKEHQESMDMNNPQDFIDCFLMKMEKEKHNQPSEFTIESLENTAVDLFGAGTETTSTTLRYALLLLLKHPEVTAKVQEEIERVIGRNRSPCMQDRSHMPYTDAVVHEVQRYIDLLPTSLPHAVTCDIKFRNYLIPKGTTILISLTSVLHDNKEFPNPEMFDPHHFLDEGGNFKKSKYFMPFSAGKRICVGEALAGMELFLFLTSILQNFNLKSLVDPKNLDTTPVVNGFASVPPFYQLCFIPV

[2] = target: FAD-linked sulfhydryl oxidase ALR (Homo sapiens, UniProt P55789); experiment: ALR-catalysed DTT oxidation blockers – biochemical, H2O2 detection, luminescence, cherry-pick, dose response (AID 493248)
FAD-linked sulfhydryl oxidase ALR, sequence (P55789 whole entry): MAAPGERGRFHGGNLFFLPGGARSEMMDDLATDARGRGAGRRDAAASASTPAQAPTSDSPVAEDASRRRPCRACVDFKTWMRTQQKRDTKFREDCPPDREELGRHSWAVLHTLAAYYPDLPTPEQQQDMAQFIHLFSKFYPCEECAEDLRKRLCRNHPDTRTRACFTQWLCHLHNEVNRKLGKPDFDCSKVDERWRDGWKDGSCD

cells [3] = assay type: functional, cell-based
cells [4] = assay type: functional, cell-based; remark: listed apart in the source
fMet-Leu-Phe receptor = target: T1, fMet-Leu-Phe receptor (Homo sapiens, UniProt P21462); experiment: formyl peptide receptor binders – dose response (AID 519); assay type: functional
T1 sequence (P21462 whole entry): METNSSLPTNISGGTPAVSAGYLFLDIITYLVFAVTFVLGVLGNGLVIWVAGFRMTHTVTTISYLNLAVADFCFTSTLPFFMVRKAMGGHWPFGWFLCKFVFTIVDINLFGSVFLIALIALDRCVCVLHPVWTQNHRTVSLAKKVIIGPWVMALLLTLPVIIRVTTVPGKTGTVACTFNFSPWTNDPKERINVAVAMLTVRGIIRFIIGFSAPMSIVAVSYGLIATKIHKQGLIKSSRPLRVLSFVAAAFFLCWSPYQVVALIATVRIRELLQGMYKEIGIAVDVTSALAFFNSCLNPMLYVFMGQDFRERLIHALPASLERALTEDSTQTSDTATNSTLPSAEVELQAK

[5] = HPDE-C7 pancreatic duct cell viability loss – fluorescence, HTS (AID 430); assay type: functional, cell-based; settings: Homo sapiens
[6] = viability loss of HPDE-C7K cells – cell-based, fluorescence, HTS, primary screen (AID 431); assay type: functional; settings: Homo sapiens
[7] = target: Eukaryotic translation initiation factor 4E (Mus musculus, UniProt P63073); experiment: blockers of eIF4G binding by eIF4E – biochemical, TR-FRET, dose response (AID 855); assay type: functional;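 also: potency for disrupting eIF4E binding to eIF4GI seen as loss of FRET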
Eukaryotic translation initiation factor 4E, sequence (P63073 whole entry): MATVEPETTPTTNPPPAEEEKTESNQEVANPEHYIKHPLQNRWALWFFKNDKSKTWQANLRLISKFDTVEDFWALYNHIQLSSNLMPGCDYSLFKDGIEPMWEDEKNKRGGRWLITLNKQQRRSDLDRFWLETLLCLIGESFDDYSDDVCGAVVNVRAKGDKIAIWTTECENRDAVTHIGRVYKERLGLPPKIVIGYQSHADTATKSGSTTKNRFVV

[8] = target: T2, Replicative DNA helicase DnaB (Mycobacterium tuberculosis, UniProt P9WMR3); experiment: DnaB intein splicing inhibitors, dose response, biochemical, cell-free fluorescence (AID 449749); assay type: functional
T2 sequence (P9WMR3 whole entry): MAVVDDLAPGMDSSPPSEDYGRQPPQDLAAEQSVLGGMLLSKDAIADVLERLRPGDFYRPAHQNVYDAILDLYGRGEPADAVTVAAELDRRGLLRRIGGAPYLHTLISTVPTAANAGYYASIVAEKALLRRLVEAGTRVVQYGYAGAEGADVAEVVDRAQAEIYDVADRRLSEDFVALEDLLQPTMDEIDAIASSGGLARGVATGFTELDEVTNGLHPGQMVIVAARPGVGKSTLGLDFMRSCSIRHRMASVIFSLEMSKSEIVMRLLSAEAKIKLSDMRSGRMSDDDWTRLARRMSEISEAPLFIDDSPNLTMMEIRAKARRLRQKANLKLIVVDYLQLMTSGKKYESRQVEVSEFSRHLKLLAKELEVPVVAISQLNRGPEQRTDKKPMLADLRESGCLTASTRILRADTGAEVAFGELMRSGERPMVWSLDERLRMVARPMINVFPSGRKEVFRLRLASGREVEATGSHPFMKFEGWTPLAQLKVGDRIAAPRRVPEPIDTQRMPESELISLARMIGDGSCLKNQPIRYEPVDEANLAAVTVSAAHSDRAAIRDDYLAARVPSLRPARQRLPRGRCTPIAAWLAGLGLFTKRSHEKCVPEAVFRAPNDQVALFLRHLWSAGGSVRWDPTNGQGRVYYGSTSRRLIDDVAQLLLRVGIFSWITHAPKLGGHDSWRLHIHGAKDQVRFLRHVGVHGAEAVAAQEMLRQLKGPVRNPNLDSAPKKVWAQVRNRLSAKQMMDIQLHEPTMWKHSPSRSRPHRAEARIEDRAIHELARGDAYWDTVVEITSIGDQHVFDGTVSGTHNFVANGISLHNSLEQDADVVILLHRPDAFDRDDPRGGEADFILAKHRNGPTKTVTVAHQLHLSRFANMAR

Protein RecA = target: T3, Protein RecA (Mycobacterium tuberculosis, UniProt P9WHJ3); experiment: Fluorescence Cell-Free Homogeneous Dose Retest to Identify Inhibitors of RecA-Intein Splicing Activity. [Related pubchem assays (depositor defined):AID2097, AID2223, AID489010, AID492950]; assay type: functional
T3 sequence (P9WHJ3 whole entry): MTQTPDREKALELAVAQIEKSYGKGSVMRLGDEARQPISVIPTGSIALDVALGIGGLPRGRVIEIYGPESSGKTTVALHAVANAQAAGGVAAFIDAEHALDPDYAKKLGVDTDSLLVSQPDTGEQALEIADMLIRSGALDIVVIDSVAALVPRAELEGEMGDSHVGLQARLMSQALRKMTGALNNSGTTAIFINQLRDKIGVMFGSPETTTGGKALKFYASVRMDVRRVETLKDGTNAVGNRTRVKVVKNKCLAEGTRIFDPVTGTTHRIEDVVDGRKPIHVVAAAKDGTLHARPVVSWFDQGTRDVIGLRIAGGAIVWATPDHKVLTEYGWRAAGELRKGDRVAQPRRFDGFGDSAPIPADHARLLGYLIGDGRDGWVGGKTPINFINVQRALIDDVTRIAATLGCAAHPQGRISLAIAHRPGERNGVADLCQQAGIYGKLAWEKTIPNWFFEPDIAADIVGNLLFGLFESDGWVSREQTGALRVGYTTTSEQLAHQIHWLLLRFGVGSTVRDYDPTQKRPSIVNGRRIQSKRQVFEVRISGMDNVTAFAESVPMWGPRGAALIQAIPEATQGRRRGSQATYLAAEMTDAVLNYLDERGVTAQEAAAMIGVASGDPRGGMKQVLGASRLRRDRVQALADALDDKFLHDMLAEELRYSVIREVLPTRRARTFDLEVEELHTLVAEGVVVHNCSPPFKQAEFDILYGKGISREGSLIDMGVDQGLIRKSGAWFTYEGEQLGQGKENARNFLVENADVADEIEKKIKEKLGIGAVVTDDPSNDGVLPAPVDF

Cytochrome P450 2D6 = Cytochrome P450 2D6 (Homo sapiens, UniProt P10635);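 also: CYP2D6 member of a cytochrome P450 panel assay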
Cytochrome P450 2D6, sequence (P10635 whole entry): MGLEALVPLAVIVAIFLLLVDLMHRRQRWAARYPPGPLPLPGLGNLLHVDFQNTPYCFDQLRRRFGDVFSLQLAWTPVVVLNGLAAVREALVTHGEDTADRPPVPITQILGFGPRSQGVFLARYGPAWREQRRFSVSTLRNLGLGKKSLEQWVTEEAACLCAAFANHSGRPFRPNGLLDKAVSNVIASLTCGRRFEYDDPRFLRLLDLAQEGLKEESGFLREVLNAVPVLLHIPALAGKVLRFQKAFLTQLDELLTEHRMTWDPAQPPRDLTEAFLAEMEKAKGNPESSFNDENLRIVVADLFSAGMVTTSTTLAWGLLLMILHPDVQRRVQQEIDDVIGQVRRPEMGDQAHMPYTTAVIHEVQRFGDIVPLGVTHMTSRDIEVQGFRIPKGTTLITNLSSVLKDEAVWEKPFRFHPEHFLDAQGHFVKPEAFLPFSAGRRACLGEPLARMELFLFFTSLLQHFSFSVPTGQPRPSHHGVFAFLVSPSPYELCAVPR

Cytochrome P450 1A2 = target: T4, Cytochrome P450 1A2 (Homo sapiens, UniProt P05177);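 also: PubChem cytochrome P450 panel assay, CYP1A2 panel member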
T4 sequence (P05177 whole entry): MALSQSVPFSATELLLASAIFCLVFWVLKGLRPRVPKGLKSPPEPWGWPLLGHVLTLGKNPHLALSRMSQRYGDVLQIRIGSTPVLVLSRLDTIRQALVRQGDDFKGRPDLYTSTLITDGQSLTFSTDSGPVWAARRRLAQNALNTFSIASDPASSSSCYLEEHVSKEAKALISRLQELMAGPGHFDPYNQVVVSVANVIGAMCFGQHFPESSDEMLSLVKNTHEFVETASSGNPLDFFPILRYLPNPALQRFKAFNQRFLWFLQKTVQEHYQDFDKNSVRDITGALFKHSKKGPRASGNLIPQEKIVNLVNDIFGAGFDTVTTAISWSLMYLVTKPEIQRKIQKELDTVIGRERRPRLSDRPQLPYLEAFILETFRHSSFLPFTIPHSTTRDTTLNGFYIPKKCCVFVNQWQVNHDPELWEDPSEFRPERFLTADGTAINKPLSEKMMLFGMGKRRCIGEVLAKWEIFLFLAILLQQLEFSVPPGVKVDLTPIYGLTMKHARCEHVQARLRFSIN

[9] = intracellular Trypanosoma cruzi inhibitors in host cells – cell-based, plate reader, cherry-pick samples, set 3, dose response (AID 651818); assay type: functional;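 also: compounds incubated with infected cells for about four days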
Paired box protein Pax-8 = Paired box protein Pax-8 (Homo sapiens, UniProt Q06710); experiment: PAX8 transcriptional activity inhibition in RMG-I – RMG-I cells, luciferase, cherry-pick, dose response (AID 687027); assay type: functional, cell-based;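 also: luciferase reporter driven by Pax8 target thyroperoxidase promoter measured by SteadyGlo luminescence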
Paired box protein Pax-8, sequence (Q06710 whole entry): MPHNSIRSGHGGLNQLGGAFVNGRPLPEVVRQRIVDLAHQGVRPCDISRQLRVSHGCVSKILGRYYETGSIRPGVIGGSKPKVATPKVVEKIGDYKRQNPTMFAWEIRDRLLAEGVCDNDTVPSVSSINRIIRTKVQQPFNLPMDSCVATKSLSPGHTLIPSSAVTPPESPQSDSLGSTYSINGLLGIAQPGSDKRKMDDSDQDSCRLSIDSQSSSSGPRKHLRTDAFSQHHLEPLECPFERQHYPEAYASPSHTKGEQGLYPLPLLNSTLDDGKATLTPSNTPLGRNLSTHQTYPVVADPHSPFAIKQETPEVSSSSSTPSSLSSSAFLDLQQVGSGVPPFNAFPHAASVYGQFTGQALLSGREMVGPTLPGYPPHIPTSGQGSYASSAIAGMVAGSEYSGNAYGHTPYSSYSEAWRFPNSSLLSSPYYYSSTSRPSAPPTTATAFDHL

[10] = OVCAR8 cell viability loss – plate reader, dry powder samples, PAX8 project, dose response (AID 743197); assay type: functional, cell-based; settings: OVCAR-8
[11] = target: T5, Rac GTPase-activating protein 1 (Homo sapiens, UniProt Q9H0H5); experiment: blockers of MgcRacGAP-driven Rac1 GTP hydrolysis – biochemical, ADP Hunter fluorescence, primary and confirmatory, confirmation (AID 624330); assay type: functional
T5 sequence (Q9H0H5 whole entry): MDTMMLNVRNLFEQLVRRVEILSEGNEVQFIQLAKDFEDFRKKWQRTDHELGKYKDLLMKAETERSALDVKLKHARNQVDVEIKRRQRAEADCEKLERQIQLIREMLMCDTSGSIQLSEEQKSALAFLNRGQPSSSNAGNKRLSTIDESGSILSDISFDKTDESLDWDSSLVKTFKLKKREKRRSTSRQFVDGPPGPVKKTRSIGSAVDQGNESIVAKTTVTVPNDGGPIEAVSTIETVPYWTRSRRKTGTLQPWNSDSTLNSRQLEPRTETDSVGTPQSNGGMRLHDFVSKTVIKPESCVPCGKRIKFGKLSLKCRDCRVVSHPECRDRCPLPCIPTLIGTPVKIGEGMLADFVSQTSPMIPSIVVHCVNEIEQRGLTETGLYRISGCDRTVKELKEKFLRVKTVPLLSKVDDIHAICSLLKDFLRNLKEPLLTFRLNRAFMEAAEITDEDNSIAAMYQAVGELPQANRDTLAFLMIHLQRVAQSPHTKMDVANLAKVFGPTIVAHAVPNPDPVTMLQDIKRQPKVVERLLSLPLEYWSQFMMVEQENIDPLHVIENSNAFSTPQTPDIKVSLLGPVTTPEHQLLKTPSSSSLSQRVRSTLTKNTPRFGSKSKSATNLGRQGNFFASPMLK

CCOc1ccc2nc(N3CCC(C(=O)NC4CCCCC4)CC3)sc2c1
CC50 [1]: > 40 µM (active)

CCC(C)N1CCC2(CC1)N=c1c3c(O)c4c(O)c(C)c5c(c4c1=N2)C(=O)[C@@](C)(OC=C[C@H](OC)[C@@H](C)[C@@H](OC(C)=O)[C@H](C)[C@H](O)[C@H](C)[C@@H](O)[C@@H](C)C=CC=C(C)C(=O)N3)O5 (stereo not given in full)
AC50 (Escherichia coli): 7.88 µM (active)

Clc1ccc(-c2csc3ncnc(N4CCc5ccccc5C4)c23)cc1
CC50 [1]: > 40 µM (active)

CC(C)c1ccc(S(=O)(=O)N2CCN(CCC(=O)Nc3ccc(N(C)C)cc3)CC2)cc1
IC50 (Large T antigen): 15.1 µM (active)

O=C1CC(c2ccc(S(=O)(=O)NCCOc3ccccc3)cc2)CN1 (stereo not given)
IC50 (Estrogen receptor beta): > 50 µM (not active)

Cc1ccc(Cn2c(C(CO)Nc3nc(-c4ccc(Cl)c([N+](=O)[O-])c4)cs3)nc3ccccc32)cc1 (stereo not given)
CC50 [1]: 37.3 µM (active)

CC(C)(C)c1nnc(NC(=O)NS(=O)(=O)c2ccccc2)s1
AC50 (Cytochrome P450 2C19): 39.8 µM (inconclusive) | AC50 (Cytochrome P450 2C9): 10 µM (inconclusive) | AC50 (Escherichia coli): 61.5 µM (active)

Cc1cc(=O)oc2c(N)c(O)ccc12
IC50 (Large T antigen): 0.77 µM (active) | AC50 [2]: 1.32 µM (active)

CCOC(=O)c1sc(N(Cc2ccccc2)C(=O)COC(=O)c2ccc(O)cc2)nc1C
EC50 (cells [3]): > 350 µM (not active) | EC50 (cells [4]): 175 µM (active)

O=C(Cn1c(=O)oc2ccccc21)N1CCN(c2ccccc2)CC1
Ki (fMet-Leu-Phe receptor): > 66.7 µM (inactive)

O=C(C1=C(O)C(=O)N(CCN2CCOCC2)C1c1ccccc1)c1cccs1 (stereo not given)
Ki (fMet-Leu-Phe receptor): > 66.7 µM (inactive)

Cc1cccn2c(=O)c3cc(C(=O)N4CCC5(CC4)OCCO5)n(C)c3nc12
EC50 [5]: 4.7 µM (active) | EC50 [6]: 8.42 µM (active)

O=C1C(C23CC4CC(CC(C4)C2)C3)C(=O)N(c2ccccc2)N1c1ccccc1
Ki (fMet-Leu-Phe receptor): 11.5 µM (active)

CCN(CC)C1=CC(=O)OC12CCCCC2
IC50 (Estrogen receptor beta): > 50 µM (not active)

O=C1CCCC(O)=C1C(C#Cc1ccccc1)C1=C(O)CCCC1=O
IC50 [7]: > 64 µM (inactive) | AC50 [8]: 6.78 µM (active) | EC50 (Protein RecA): > 380 µM (inconclusive) | Ki (fMet-Leu-Phe receptor): > 66.7 µM (inactive)

COc1ccccc1CNC(=O)c1cc2c(C)nn(Cc3ccc(F)cc3)c2s1
CC50 [1]: > 40 µM (active) | AC50 (Cytochrome P450 2D6): 22.4 µM (inconclusive) | AC50 (Cytochrome P450 1A2): 31.6 µM (inconclusive)

COc1ccc(OC)c(C(=O)c2nc3c(n2O)CCCCC3)c1
Ki (fMet-Leu-Phe receptor): 49.6 µM (inactive)

COc1ccccc1NC(=O)c1cc2ccccc2o/c1=N\O
EC50 [5]: > 20 µM (not active) | EC50 [6]: > 20 µM (not active)

C[C@H](CO)N1C[C@H](C)[C@@H](CN(C)Cc2ccc(C(F)(F)F)cc2)Oc2ccc(NS(=O)(=O)c3ccc(F)cc3)cc2C1=O
AC50 [9]: 3.48 µM (active)

COc1ccc(CN(C)C[C@@H]2OCCCC[C@@H](C)Oc3ccc(NC(=O)Nc4ccc(C(F)(F)F)cc4)cc3C(=O)N([C@@H](C)CO)C[C@H]2C)cc1
AC50 (Paired box protein Pax-8): 8.11 µM (active) | AC50 [10]: > 70 µM (inactive)

O=S(=O)(c1ccccc1)N1CCCCN2[C@H](CO)[C@H](c3ccc(-c4ccccc4F)cc3)[C@H]2C1
AC50 (Paired box protein Pax-8): 33.7 µM (active) | AC50 [10]: > 70 µM (inactive)

COc1cc(/C=N/NC(=S)NCCN2CCOCC2)ccc1O
IC50 (Large T antigen): 6.95 µM (active) | IC50 [11]: 19.9 µM (active)

COc1ccccc1/C=C/C(=O)NCC(=O)N/N=C/c1cc(Br)ccc1OC
CC50 [1]: 27.5 µM (active)

Cc1ccc(/C=N\NC(=O)COc2ccc(C)cc2[N+](=O)[O-])cc1
IC50 (Large T antigen): > 100 µM (active)

O=C(Nc1ccc(CN2CCOCC2)cc1)c1ccc(-c2ccc(Br)cc2)o1
EC50 [5]: 13.9 µM (active) | EC50 [6]: 9.91 µM (active)
